# Experimental data as given in patent US12048720B2, “Compositions comprising bacterial strains” (CJ BIOSCIENCE, INC., priority 2017, dated 2024).
# Test system: SH-SY5Y neuroblastoma cells
# Experiment: Neuroprotection / cell viability of differentiated SH-SY5Y neuroblastoma cells with or without MPP (CCK-8)
# Type: cell-based, human
# Conditions: RA-differentiated SHSY-5Y cells treated with MPP+, FIG. 11
# Experimental: Neuroblastoma cells were treated with compositions comprising bacterial strains according to the invention. The SH-SY5Y neuroblastoma cells used are dopamine producing and well-established as an in vitro model for studying neurodegenerative diseases. The ability of the bacterial strains to increase neuroproliferation was observed. The neuroblastoma cells were treated also treated dopaminergic neurotoxin 1-methyl-4-phenylpyridinium (MPP), which induces permanent symptoms of Parkinson's disease in neuroblastoma cells. The ability of the bacterial strains to act as a neuroprotectant against MPP was investigated.
# SH-SY5Y neuroblastoma cells were purchased from ECCACC (Cat. no: 94030304) and were grown in MEM (Sigma Aldrich, cat n. M2279) supplemented with Nutrient Mixture F-12 Ham (Sigma Aldrich, cat n. N4888).
# Once grown the SH-SY5Y neuroblastoma cells were plated on 96-well plate at 11,000 cells/well and incubated for 2 days. […] Cell viability was measured by using CCK-8 reagent (Sigma Aldrich, Cell Counting Kit—8, cat. n. 96992-3000TESTS-F) and read at 450 nm wavelength.
# RA-differentiated SHSY-5Y cells were treated with MPP+, the active metabolite of MPTP, a chemical widely used to mimic in vitro and in vivo some of the features of PD pathology. Cell viability was measured as the rate of mitochondria respiration (FIG. 11).
smiles,measurement,value
O=c1c(O)c(-c2ccc(O)c(O)c2)oc2cc(O)cc(O)c12 [quercetin],protection compared to YCFA-MPP+ treated sample,about 20%
